We go through 2 compounds from patent US6492398B1, “Thiazoloindolinone compounds” (SmithKline Beechman Corporation, priority 1999, dated 2002).

Each structure is given as a SMILES string. ≈ marks a conversion by molar mass, not a printed value.

As a reminder, the Solubility is the concentration that dissolves in the medium under given conditions.

The nature of data set [1]: Crystallization determinations, solubility comments (Table IV). The conditions noted are these: for Solubility (Comments): evaporation at 25° C. In kind it is physicochemical. The procedure: Recrystallization procedures for the respective forms were carried out in each case with the compound being dissolved in the selected solvent and stored at ambient temperature (e.g., 25° C.) until the solvent evaporated. The solid residue was then analyzed by x-ray diffraction.
In the respective anti-solvent determinations, the compound was dissolved in a selected solvent at 25° C., and water or alcohol was added to precipitate a solid. The solid was analyzed by x-ray diffraction.
The compound 4-(((7-oxo-6,7-dihydro-8H-[1,3]thiazolo[5,4-e]indol-8-ylidene)-methyl)amino)-N-(4-pyridinylmethyl) benzenesulfonamide was subjected to crystallization determinations using various solvents and methods of crystallization as described in Table IV below.
In the case of solvent that are relatively non-volatile (DMSO, DMF), complete evaporation was difficult to achieve at […] The presence of solvent was evident as an amorphous hump in the PXRD pattern. Cooling at 5° C. was less successful than the other crystallization approaches as a consequence of the low solubility of 4-(((7 oxo-6,7-dihydro-8H [1,3]thiazolo[5,4-e]indol-8-ylidene)methyl)amino)-N-(4-pyridinylmethyl) benzenesulfonamide under such conditions.

A short description of data set [2]: Solubilities in solvent media (PEG 400, transcutol, methanol). It counts as physicochemical. From the text: The solubilities (in milligrams per milliliter, mg/mL) of the Form A compound in polyethylene glycol 400, transcutol and methanol solvents are as follows:
The solubilities (in milligrams per milliliter, mg/mL) of Form B in polyethylene glycol 400, transcutol and methanol solvents are as follows: […]

On to `O=C1Nc2ccc3ncsc3c2C1=CNc1ccc(S(=O)(=O)NCc2ccncc2)cc1` [Form B, 4-{[(7-oxo-6,7-dihydro-8H-[1,3]thiazolo[5,4-e]indol-8-ylidene)methyl]amino}-N-(4-pyridinylmethyl)-benzenesulfonamide], for which the “Solubility (Comments)” value in data set [1] (solvent ethyl acetate) was “low”. The Solubility turned out to be 4500 µg/mL (≈ 9.71 mM) in data set [2] (solvent PEG 400 (polyethylene glycol 400)), 80 µg/mL (≈ 0.173 mM) in data set [2] (solvent methanol) and 2770 µg/mL (≈ 5.98 mM) in data set [2] (solvent transcutol).

Regarding `O=C1Nc2ccc3ncsc3c2C1=CNc1ccc(S(=O)(=O)NCc2ccncc2)cc1` [Form A, 4-{[(7-oxo-6,7-dihydro8H-[1,3]thiazolo[5,4-e]indol-8-ylidene)methyl]amino}-N-(4-pyridinylmethyl)-benzenesulfonamide], the Solubility in data set [1] (organic solvent or mixture, solvent ethyl acetate, cooling at 5° C.) is less than 60 µg/mL; in data set [2] (polyethylene glycol 400, organic solvent or mixture, solvent PEG 400 (polyethylene glycol 400), read-out: Solubility), 4760 µg/mL (≈ 10.3 mM); in data set [2] (solvent methanol), 300 µg/mL (≈ 0.647 mM); in data set [2] (transcutol, organic solvent or mixture, solvent transcutol, read-out: Solubility) it was 3150 µg/mL (≈ 6.8 mM). In addition, the “Solubility (Comments)” value in data set [1] (solvent pyridine) is recorded as “low”.
